The source of these data is patent US20180291043A1, “BENZOCYCLOOCTENE-BASED AND INDENE-BASED ANTICANCER AGENTS” (BAYLOR UNIVERSITY, priority 2016, published 2018).

Test [1] deals with NCI-H460. The following applies: Data from Devkota et. al., 2016; read-out: GI50 (μM) SRB assay NCI-H460; cited from earlier work. Background: Sulforhodamine B stains cellular protein and so reports cell mass.
In test [2] the test system is DU-145. The following applies: Data from Devkota et. al., 2016; read-out: GI50 (μM) SRB assay DU-145; cited from earlier work.
The subject of test [3] is purified bovine brain tubulin. The note with it: Data from Pettit et al., 2000; read-out: Inhibition of tubulin polymerization IC50 (μM) ± SD; cited from earlier work.
For test [4], the system named is SK-OV-3. The following applies: Data from Devkota et. al., 2016; read-out: GI50 (μM) SRB assay SK-OV-3; cited from earlier work.
Test [5] has as its system tubulin. The experiment in a line: Colchicine binding assay (inhibition of [3H]colchicine binding to tubulin). The note with it: inhibitor at 1 μM. Here is the method:
Inhibition of [^3H]colchicine binding to tubulin was measured using reaction mixtures (100 μL each) containing 1.0 μM tubulin, 5.0 μM [^3H]colchicine (from Perkin-Elmer), 5% (v/v) dimethyl sulfoxide, […], and components that stabilize the colchicine binding activity of tubulin (Hamel et al., 1981) (1.0 M monosodium glutamate [adjusted to pH 6.6 with HCl in a 2.0 M stock solution], 0.5 mg/mL bovine serum albumin, 0.1 M glucose-1-phosphate, 1.0 mM MgCl2, and 1.0 mM GTP). […] Reactions were stopped with 2.0 mL of ice-cold water, and the reaction mixtures were placed on ice. Each sample was poured onto a stack of two DEAE-cellulose filters (from Whatman), followed by 6 mL of ice-cold water. The samples were aspirated under reduced vacuum. The filters were washed three times with 2 mL water and placed into vials containing 5 mL of Biosafe II scintillation cocktail. Samples were counted 18 h later in a Beckman scintillation counter. Samples with inhibitors were compared to samples with no inhibitor, and percent inhibition was determined. All samples were corrected for the amount of radiolabel bound to the filters in the absence of tubulin.

Broadly, the GI50 is the concentration at which growth is held to half of that of the control. As a reminder, the IC50 is the concentration at which inhibition is half-maximal. Regarding `COc1ccc(/C=C\c2cc(OC)c(OC)c(OC)c2)cc1O` [CA4], the concentration for 50% growth inhibition (GI50) in test [1] was 0.005 µM; in test [2], 0.00602 µM; in test [4], 0.00506 µM. Further, the IC50 in test [3] was […]. Moreover, the “% Inhibition of colchicine binding ± SD” value in test [5] is […].
